Measurements: patent US10995068B2, “Synthetic sphingolipid-like molecules, drugs, methods of their synthesis and methods of treatment” (The Regents of the University of California, priority 2015, dated 2021)

What was measured:
[1] = Blood chemistry of pDKO mice; type: in vivo; conditions: for Alkaline Phosphatase: Means ± SEM, n = 4, in U/L (unit assumed); for Albumin / Globulin / Total Protein: in g/dL (unit assumed); for Blood Urea Nitrogen / Ca^2+ / Cholesterol / P / Total Bilirubin: in mg/dL (unit assumed); for HCO^3−: in mmol/L (unit assumed); for Creatine: unit assumed
Procedure: In vivo studies. Experiments conducted in mice were performed in accordance with the Institutional Animal Care and Use Committee of University of California, Irvine following a power analysis conducted in consultation with the Biostatistics Shared Resource of Chao Family Comprehensive Cancer Center at UCI. Xenografts were produced by injecting 5 million cells subcutaneously in the flank of 10-16 week-old male or female NSG mice. Prostate isografts were produced in the same manner but in male 6-8 wk old C57BL/6 mice. Once tumors reached 100 mm^3, SH-BC-893 was administered by intraperitoneal (i.p.) injection or oral gavage as indicated. Tumor volume was calculated using the formula, volume (mm^3)=length [mm]×(width [mm])^2×0.52; BLI was measured using an IVIS imaging system (Xenogen). To generate pDKO mice on the C57BL6 background, Pten^flox mice (stock No. 0045597) and p53^flox mice (stock No. 008462) were obtained from the Jackson Laboratory and PB-Cre4 mice (strain #01XF5) were obtained from the NCI-Frederick Mouse Repository. Age-matched cohorts of pDKO males were generated by in vitro fertilization executed with the assistance of the Transgenic Mouse Facility at UC Irvine. Treatment was begun at 6-7 wks of age. […] Tumor samples were processed and imaged by the Pathology Research Services Core Facility at UC Irvine. Blood chemistry was analyzed by IDEXX BioResearch and complete blood counts were performed using a Hemavet hematology system.

[2] = test system: PI(3,5)P2 levels in HeLa cells; test: Measurement of PI(3,5)P2 by HPLC; type: cell-based
Procedure: (§1) In certain embodiments of the invention, sphingolipid-like molecules mis-localize PIKfyve preventing its association with TRMPL1 and inducing vacuolation, instead of inhibiting PIKfyve kinase activity. While PIKfyve localized to the limiting membrane of YM201636-induced vacuoles as expected, PIKfyve was present in clumps between vacuoles in FTY720-treated cells (FIGS. 57C and 56F).
Measurement of PI(3,5)P2 by HPLC. HeLa cells were rinsed twice with PBS and incubated in for 48 h in inositol labeling medium (inositol-free DMEM containing 5 μg/ml transferrin, 5 μg/ml insulin, 10% dialyzed FCS, 20 mM HEPES, 2 mM L-glutamine), and 10 μCi/ml myo-[2-^3H]inositol. Cells were lysed with 4.5% perchloric acid, scraped, and centrifuged at 14,000×g for 10 min at 4° C. Cell pellets were rinsed with 100 mM EDTA, centrifuged again, and re-suspended in 50 μl of water. To deacylate lipids, 1 ml methanol/40% methylamine/butanol (45.7% methanol, 10.7% methylamine, 11.4% butanol) were added and then the mixture was transferred to a glass vial and incubated at 55° C. for 1 h. After cooling to room temperature, samples were vacuum dried and re-suspended in 0.5 ml water. […] The aqueous phase was vacuum dried and re-suspended in 75 μl water and 50 μl of each sample was analyzed by HPLC. PI(3,5)P2 levels were expressed as a percentage of total phosphatidylinositol.

PIKfyve = target: T1, PIKfyve (Homo sapiens, UniProt Q9Y2I7); test: PIKfyve in vitro kinase assay; type: biochemical; conditions: FLAG-PIKfyve
T1 construct: made in house; host or cells: HEK293T cells
T1 sequence (Q9Y2I7 whole entry, species assumed): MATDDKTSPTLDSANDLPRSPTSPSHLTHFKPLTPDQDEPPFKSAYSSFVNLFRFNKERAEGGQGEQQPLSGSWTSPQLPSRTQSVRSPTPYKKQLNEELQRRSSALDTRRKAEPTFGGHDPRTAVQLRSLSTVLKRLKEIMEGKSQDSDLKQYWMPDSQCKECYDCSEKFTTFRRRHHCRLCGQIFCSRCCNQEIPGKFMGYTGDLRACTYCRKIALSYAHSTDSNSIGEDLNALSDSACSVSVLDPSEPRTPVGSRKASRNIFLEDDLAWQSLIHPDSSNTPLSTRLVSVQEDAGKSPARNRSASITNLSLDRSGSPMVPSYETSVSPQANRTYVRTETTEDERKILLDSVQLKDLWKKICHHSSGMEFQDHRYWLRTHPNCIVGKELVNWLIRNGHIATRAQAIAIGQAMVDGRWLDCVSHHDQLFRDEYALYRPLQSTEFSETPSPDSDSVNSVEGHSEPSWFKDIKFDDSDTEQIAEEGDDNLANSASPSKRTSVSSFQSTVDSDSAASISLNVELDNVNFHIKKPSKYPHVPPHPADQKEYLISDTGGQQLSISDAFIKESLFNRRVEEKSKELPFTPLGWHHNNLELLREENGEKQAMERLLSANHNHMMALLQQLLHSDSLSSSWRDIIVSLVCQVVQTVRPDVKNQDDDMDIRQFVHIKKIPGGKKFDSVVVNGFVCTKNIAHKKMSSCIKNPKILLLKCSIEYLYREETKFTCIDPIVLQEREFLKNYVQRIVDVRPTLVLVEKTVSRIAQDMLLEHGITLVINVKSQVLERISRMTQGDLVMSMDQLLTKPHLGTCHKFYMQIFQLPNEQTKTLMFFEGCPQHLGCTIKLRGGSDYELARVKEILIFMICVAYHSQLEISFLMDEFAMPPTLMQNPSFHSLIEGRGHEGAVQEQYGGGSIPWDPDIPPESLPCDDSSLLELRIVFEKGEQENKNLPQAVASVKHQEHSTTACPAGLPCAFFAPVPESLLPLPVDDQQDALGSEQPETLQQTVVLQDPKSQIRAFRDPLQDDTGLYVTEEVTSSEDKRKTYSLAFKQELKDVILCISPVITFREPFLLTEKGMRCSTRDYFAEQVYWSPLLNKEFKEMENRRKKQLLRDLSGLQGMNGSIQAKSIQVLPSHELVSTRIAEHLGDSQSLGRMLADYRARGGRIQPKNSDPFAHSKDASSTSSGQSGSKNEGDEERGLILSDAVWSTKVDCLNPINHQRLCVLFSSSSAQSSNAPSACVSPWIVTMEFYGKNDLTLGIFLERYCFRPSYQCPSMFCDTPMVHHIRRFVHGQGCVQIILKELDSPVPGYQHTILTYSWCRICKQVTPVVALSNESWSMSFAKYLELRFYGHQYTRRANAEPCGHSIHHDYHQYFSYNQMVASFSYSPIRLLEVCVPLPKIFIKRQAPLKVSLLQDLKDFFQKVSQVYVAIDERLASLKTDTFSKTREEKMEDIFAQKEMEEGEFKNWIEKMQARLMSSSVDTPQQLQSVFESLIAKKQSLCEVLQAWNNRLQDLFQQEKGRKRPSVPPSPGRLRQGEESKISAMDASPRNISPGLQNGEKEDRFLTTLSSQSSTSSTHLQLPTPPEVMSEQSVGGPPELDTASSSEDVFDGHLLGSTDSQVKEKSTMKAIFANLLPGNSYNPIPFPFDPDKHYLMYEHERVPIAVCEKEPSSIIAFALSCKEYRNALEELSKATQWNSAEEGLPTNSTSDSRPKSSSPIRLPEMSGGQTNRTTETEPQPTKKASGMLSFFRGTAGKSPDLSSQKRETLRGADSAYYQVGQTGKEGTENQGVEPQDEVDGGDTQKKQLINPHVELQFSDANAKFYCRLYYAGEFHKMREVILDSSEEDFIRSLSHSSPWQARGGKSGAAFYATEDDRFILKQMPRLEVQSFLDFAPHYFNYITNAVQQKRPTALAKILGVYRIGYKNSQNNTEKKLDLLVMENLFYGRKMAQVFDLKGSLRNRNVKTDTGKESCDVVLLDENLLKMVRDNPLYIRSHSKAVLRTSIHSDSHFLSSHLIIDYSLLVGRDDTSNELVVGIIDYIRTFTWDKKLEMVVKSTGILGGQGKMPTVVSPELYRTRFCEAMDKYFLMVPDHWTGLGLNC
Excerpt: as §1
PIKfyve in vitro kinase assay. FLAG-PIKfyve was expressed in HEK293T cells, purified with FLAG-beads, and eluted with FLAG peptides. PI3P and phosphatidylserine (C16) liposomes were generated by sonication in 2× lipid mixture buffer [40 mM Tris-HCl (pH 7.4), 200 mM NaCl, 1 mM EGTA] with or without FTY720. FLAG-PIKfyve and lipid mixtures were incubated with Mg^2+-ATP solution [6.5 mM HEPES (pH 7.3), 2.5 mM MnCl2, 10 mM MgCl2, 1 mM β-glycerophosphate, 0.1 mM ATP and [^32P]-γ-ATP] for 15 min at RT. The reaction was stopped by adding 4 M HCl, and phosphoinositides were extracted with methanol/chloroform (1:1). Phosphoinositides were spotted on silica thin-layer chromatography plates and separated with 2 M acetic acid/1-propanol (35:65). Membranes were dried, exposed to a Phospho Imager, and the counts from PI(3,5)P2 spots quantified with ImageQuant.

[3] = 60 mg/kg, at sacrifice, in U/L (unit assumed)
[4] = 120 mg/kg, at sacrifice, in U/L (unit assumed)

With CCCCCCCCc1ccc([C@H]2CCN[C@@H]2CO)cc1.Cl [Compound 5, (2S,3R)-2-(hydroxymethyl)-3-(4-octylphenyl)Pyrrolidinium chloride] the Glucose ([1]; 60 mg/kg, at sacrifice) was 282 ± 24^, the “Alkaline Phosphatase” value ([1]; 60 mg/kg, at sacrifice) was 77 ± 7.8 and the “Creatine Phosphokinase” value [1, 3] was 5,340 ± 2366. The “Serum Glutamic Oxaloacetic Transaminase (Asp aminotransferase)” value [1, 3] was 640 ± 136, the “Serum Glutamic-Pyruvic Transaminase (Ala aminotransferase)” value [1, 3] was 78 ± 25 and the Albumin ([1]; 60 mg/kg, at sacrifice) was 3 ± 0.2. For the same molecule, the Globulin ([1]; 60 mg/kg, at sacrifice) was 2 ± 0.18, the “Total Protein” value ([1]; 60 mg/kg, at sacrifice) was 5 ± 0.4 and the “Blood Urea Nitrogen” value ([1]; 60 mg/kg, at sacrifice) was 19 ± 1.1. The “Ca^2+” value ([1]; 60 mg/kg, at sacrifice) was 10 ± 0.7, the Cholesterol ([1]; 60 mg/kg, at sacrifice) was 134 ± 15.8 and the P ([1]; 60 mg/kg, at sacrifice) was 11 ± 1.0. The “Total Bilirubin” value ([1]; 60 mg/kg, at sacrifice) was 0.1 ± 0, the “HCO^3−” value ([1]; 60 mg/kg, at sacrifice) was 20 ± 3.2 and the Creatine ([1]; 60 mg/kg, at sacrifice) was less than 0.2 mg/dL. For the same molecule, the Glucose ([1]; 120 mg/kg, at sacrifice) was 307 ± 28^, the “Alkaline Phosphatase” value ([1]; 120 mg/kg, at sacrifice) was 83 ± 6.2 and the “Serum Glutamic Oxaloacetic Transaminase (Asp aminotransferase)” value [1, 4] was 907 ± 171. The “Serum Glutamic-Pyruvic Transaminase (Ala aminotransferase)” value [1, 4] was 91 ± 17.2, the Albumin ([1]; 120 mg/kg, at sacrifice) was 3 ± 0.1 and the Globulin ([1]; 120 mg/kg, at sacrifice) was 2 ± 0.03. The “Total Protein” value ([1]; 120 mg/kg, at sacrifice) was 6 ± 0.2, the “Blood Urea Nitrogen” value ([1]; 120 mg/kg, at sacrifice) was 23 ± 1.5 and the “Ca^2+” value ([1]; 120 mg/kg, at sacrifice) was 10 ± 0.1. The Cholesterol ([1]; 120 mg/kg, at sacrifice) was 107 ± 7.5, the P ([1]; 120 mg/kg, at sacrifice) was 13 ± 0.1 and the “Total Bilirubin” value ([1]; 120 mg/kg, at sacrifice) was 0.2 ± 0.03. The “HCO^3−” value ([1]; 120 mg/kg, at sacrifice) was 17 ± 2.8, the Creatine ([1]; 120 mg/kg, at sacrifice) was less than 0.2 mg/dL and the “toxicity to the liver or kidneys by blood chemistry at sacrifice” value ([1]; anti-neoplastic dose) was “not toxic to the liver or kidneys”.
For CCCCCCCCc1ccc(CCC(N)(CO)CO)cc1.Cl [FTY720, 2-Amino-2-[2-(4-octylphenyl)ethyl]propane 1,3-diol hydrochloride, reference compound], the “PI(3,5)P2 levels” value [2] was “did not inhibit PIKfyve kinase activity or reduce PI(3,5)P2 levels” and the PIKfyve kinase activity (PIKfyve) was “did not inhibit PIKfyve kinase activity”.
